The series can be described thus: Saline solubility at 1.00 mg/mL and 0.50 mg/mL (with pH by indicator paper). Format: physicochemical. The conditions noted are these: for pH at 1.00 mg/mL of MGCD290 in saline: final concentration of hydroxamate 1 1.00 mg/mL, pH indicator paper; for solubility at 1 h: saline or isotonic, thermodynamic from solid, centrifuged, soluble = no precipitate formed. The procedure: Assays were performed to determine the saline solubility at 1.00 and 0.50 mg/ml and the stability of certain of the prodrug compounds of Examples 1-111. The following procedures were used.
Step 1. Sample preparation. An amount of the compound sample was precisely weighed to correspond to around 5 mg of the hydroxamate of compound 1, taking into account the mass of the leaving group and the salt factor if applicable. The sample was placed in a 16×125 mm glass screw cap tube. Saline was added so that the final concentration of hydroxamate 1 was 1.00 mg/mL. The pH was measured with pH indicator paper. The tube was shaken for 1 hour on a Vortex apparatus then centrifuged at 3000 rpm (1800 rcf) for 5 minutes. If the compound example was soluble (no precipitate formed) the procedure continued to step 2. If a precipitate formed then the sample was diluted with saline so that the final concentration of the hydroxamate of compound 1 was 0.50 mg/mL, and the shaking and centrifuging steps were repeated. If the compound example was soluble (no precipitate formed) the procedure continued to step 2. If a precipitate formed the sample was discarded. Step 2. HPLC analysis. A 500 μL aliquot of a sample solution prepared according to Step 1 was taken up into a 1.5 mL injection vial to which was added 500 μL of saline. The vial was shaken on a Vortex apparatus, injected into the HPLC instrument (UV detection, zero time point) and the retention time and purity of the sample compound were determined. The injection was repeated after 6 hours and 24 hours, and a comparison was made of the retention time, peak areas and level of degradation (if any) using the GDADI50 method.

Where [1] appears, read: 1.00 mg/mL as hydroxamate 1, shaken 1 hour, read-out: Soluble at 1.00 mg/mL of MGCD290 (Y/N).
The mark [2] stands for this setting: 0.50 mg/mL as hydroxamate 1, shaken 1 hour, read-out: Soluble at 0.5 mg/mL of MGCD290 (Y/N).

≈ marks a conversion by molar mass, not a printed value. Where a name gives a salt, the structure may show the parent alone. Read-outs that look alike come from different tables or passages of the source.

Consider 24 compounds from US20150203517A1, “Prodrugs of Compounds that Enhance Antifungal Activity and Compositions of Said Prodrugs” (priority 2014, published 2015).

Regarding `COCCOCCOCC(=O)NCCCC[C@H](NC(=O)COCCOCCOC)C(=O)NC[C@H](C)C(=O)ONC(=O)Cc1ccc(CCCCc2ccccc2)cc1` [Compound 91], the “pH at 1.00 mg/mL of MGCD290 in saline” value is listed as 4.5-5. In addition, the solubility at 1 h under setting [1] is greater than 1000 µg/mL.

For the compound `COCCOCCOCCNC(=O)CN(CC(=O)NCCOCCOCCOC)C(=O)CCC(=O)ONC(=O)Cc1ccc(CCCCc2ccccc2)cc1` [Compound 95, 4-oxo-N,N-bis (12-oxo-2,5,8-trioxa-11-azatridecan-13-yl)-4-(2-(4-(4-phenylbutyl)phenyl)acetamidooxy)butanamide], the “pH at 1.00 mg/mL of MGCD290 in saline” value is reported as 4.5-5. Moreover, the solubility at 1 h under setting [2] is 500 to 1000 µg/mL (≈ 634 to 1270 µM). The solubility at 1 h under setting [1] is less than 1000 µg/mL.

Regarding `COCCOCCOCCOCC(=O)NCCCC[C@H](NC(=O)COCCOCCOCCOC)C(=O)NCCCC(=O)ONC(=O)Cc1ccc(CCCCc2ccccc2)cc1` [Compound 101], the “pH at 1.00 mg/mL of MGCD290 in saline” value is recorded as 4.5-5. For the same compound, the solubility at 1 h under setting [1] was greater than 1000 µg/mL.

Take `COCCOCCOCCOCCOCC(=O)NCCCC[C@H](NC(=O)COCCOCCOCCOCCOC)C(=O)NCCCC(=O)ONC(=O)Cc1ccc(CCCCc2ccccc2)cc1` [Compound 102]: the “pH at 1.00 mg/mL of MGCD290 in saline” value is on record as 4.5-5. Besides, the solubility at 1 h under setting [1] is greater than 1000 µg/mL.

Turning to `COCCOCCOCCOCCOCCOCC(=O)NCCCC[C@H](NC(=O)COCCOCCOCCOCCOCCOC)C(=O)NCCCC(=O)ONC(=O)Cc1ccc(CCCCc2ccccc2)cc1` [Compound 103], the “pH at 1.00 mg/mL of MGCD290 in saline” value was 4.5-5. In addition, the solubility at 1 h under setting [1] was greater than 1000 µg/mL.

Regarding `NCCCC[C@H](N)C(=O)N1CCC[C@H]1C(=O)ONC(=O)Cc1ccc(CCCCc2ccccc2)cc1` [Compound 106, N-((S)-1-((S)-2,6-Diaminohexanoyl)pyrrolidine-2-carbonyloxy)-2-(4-(4-phenylbutyl)phenyl) acetamide dihydrochloride], the “pH at 1.00 mg/mL of MGCD290 in saline” value is on record as 3.5-4. Also, the solubility at 1 h under setting [2] was less than 500 µg/mL. Besides, the solubility at 1 h under setting [1] is less than 1000 µg/mL.

As to `COCCOCCOCC(=O)NCCCC[C@H](NC(=O)COCCOCCOC)C(=O)N1CCC[C@H]1C(=O)ONC(=O)Cc1ccc(CCCCc2ccccc2)cc1` [Compound 107, N,N′-((S)-6-Oxo-6-((S)-2-((2-(4-(4-phenylbutyl)phenyl)acetamidooxy)carbonyl)pyrrolidin-1-yl)hexane-1,5-diyl)bis(2-(2-(2-methoxyethoxyl)ethoxy)acetamide)], the “pH at 1.00 mg/mL of MGCD290 in saline” value was 4.5-5. Besides, the solubility at 1 h under setting [1] is greater than 1000 µg/mL.

As for `COCCOCC(=O)NCCCC[C@H](NC(=O)COCCOC)C(=O)N1CCC[C@H]1C(=O)ONC(=O)Cc1ccc(CCCCc2ccccc2)cc1` [Compound 108], the “pH at 1.00 mg/mL of MGCD290 in saline” value was 4.5-5. Further, under setting [2], the solubility at 1 h is less than 500 µg/mL. Besides, the solubility at 1 h under setting [1] was less than 1000 µg/mL.

Take `COCCOCCOCC(=O)N1CCC(CCC(=O)ONC(=O)Cc2ccc(CCCCc3ccccc3)cc2)CC1` [Compound 112]: the “pH at 1.00 mg/mL of MGCD290 in saline” value is on record as 5.5-6. Further, the solubility at 1 h under setting [2] was less than 500 µg/mL. Under setting [1], the solubility at 1 h is less than 1000 µg/mL.

As to `COCCOCCOCCOCCOCC(=O)N1CCC(CCC(=O)ONC(=O)Cc2ccc(CCCCc3ccccc3)cc2)CC1` [Compound 113], the “pH at 1.00 mg/mL of MGCD290 in saline” value is on record as 5.5-6. Under setting [2], the solubility at 1 h is less than 500 µg/mL. Also, the solubility at 1 h under setting [1] was less than 1000 µg/mL.

For the compound `Cl.O=C(Cc1ccc(CCCCc2ccccc2)cc1)NOC(=O)CC1CCNCC1` [Compound 114], the “pH at 1.00 mg/mL of MGCD290 in saline” value is listed as 4-4.5. In addition, under setting [2], the solubility at 1 h is less than 500 µg/mL. Under setting [1], the solubility at 1 h was less than 1000 µg/mL.

As to `COCCOCCOCC(=O)N1CCC(CC(=O)ONC(=O)Cc2ccc(CCCCc3ccccc3)cc2)CC1` [Compound 115], the “pH at 1.00 mg/mL of MGCD290 in saline” value is 4.5-5. In addition, the solubility at 1 h under setting [2] was less than 500 µg/mL. In addition, the solubility at 1 h under setting [1] was less than 1000 µg/mL.

Consider `COCCOCCOCCOCC(=O)N1CCC(CC(=O)ONC(=O)Cc2ccc(CCCCc3ccccc3)cc2)CC1` [Compound 116], for which the “pH at 1.00 mg/mL of MGCD290 in saline” value was 4.5-5. Moreover, the solubility at 1 h under setting [2] was less than 500 µg/mL. In addition, the solubility at 1 h under setting [1] was less than 1000 µg/mL.

With `COCCOCCOCCOCCOCCOCC(=O)N1CCC(CC(=O)ONC(=O)Cc2ccc(CCCCc3ccccc3)cc2)CC1` [Compound 117], the “pH at 1.00 mg/mL of MGCD290 in saline” value is recorded as 4.5-5. Also, the solubility at 1 h under setting [1] is greater than 1000 µg/mL.

For `Cl.O=C(Cc1ccc(CCCCc2ccccc2)cc1)NOC(=O)C1CCNCC1` [Compound 118, 2-(4-(4-phenylbutyl)phenyl)-N-(piperidine-4-carbonyloxy)acetamide hydrochloride], the “pH at 1.00 mg/mL of MGCD290 in saline” value is 4-4.5. Also, the solubility at 1 h under setting [2] was less than 500 µg/mL. Besides, the solubility at 1 h under setting [1] was less than 1000 µg/mL.

As for `COCCOCCOCC(=O)N1CCC(C(=O)ONC(=O)Cc2ccc(CCCCc3ccccc3)cc2)CC1` [Compound 119], the “pH at 1.00 mg/mL of MGCD290 in saline” value is 4.5-5. Under setting [2], the solubility at 1 h is less than 500 µg/mL. For the same compound, under setting [1], the solubility at 1 h was less than 1000 µg/mL.

For the compound `Cl.O=C(Cc1ccc(CCCCc2ccccc2)cc1)NOC(=O)CCCC1CCNCC1` [Compound 121, 2-(4-(4-phenylbutyl)phenyl)-N-(4-(piperidin-4-yl)butanoyloxy) acetamide hydrochloride], the “pH at 1.00 mg/mL of MGCD290 in saline” value was 5.-5.5. Besides, the solubility at 1 h under setting [2] is less than 500 µg/mL. Besides, the solubility at 1 h under setting [1] was less than 1000 µg/mL.

Consider `Cl.O=C(Cc1ccc(CCCCc2ccccc2)cc1)NOC(=O)CCC(=O)N1CCNCC1` [Compound 123, N-(4-oxo-4-(piperazin-1-yl)butanoyloxy)-2-(4-(4-phenylbutyl)phenyl) acetamide hydrochloride], for which the “pH at 1.00 mg/mL of MGCD290 in saline” value is listed as 4.5-5. Besides, under setting [1], the solubility at 1 h is greater than 1000 µg/mL.

As to `COCCOCCOCC(=O)N1CCN(C(=O)CCC(=O)ONC(=O)Cc2ccc(CCCCc3ccccc3)cc2)CC1` [Compound 124], the “pH at 1.00 mg/mL of MGCD290 in saline” value was 5-5.5. The solubility at 1 h under setting [1] is greater than 1000 µg/mL.

Take `Cl.O=C(Cc1ccc(CCCCc2ccccc2)cc1)NOC(=O)COC1CCNCC1` [Compound 125, 2-(4-(4-phenylbutyl)phenyl)-N-(2-(piperidin-4-yloxy)acetoxy)acetamide hydrochloride]: the “pH at 1.00 mg/mL of MGCD290 in saline” value is given as 4.5-5. Further, under setting [2], the solubility at 1 h was less than 500 µg/mL. The solubility at 1 h under setting [1] is less than 1000 µg/mL.

Regarding `COCCOCCOCCOCCOCCOCC(=O)N1CCC(OCC(=O)ONC(=O)Cc2ccc(CCCCc3ccccc3)cc2)CC1` [Compound 127], the “pH at 1.00 mg/mL of MGCD290 in saline” value is listed as 4.5-5. For the same compound, the solubility at 1 h under setting [2] was less than 500 µg/mL. For the same compound, the solubility at 1 h under setting [1] was less than 1000 µg/mL.

On to `Cl.O=C(Cc1ccc(CCCCc2ccccc2)cc1)NOC(=O)CCN1CCNCC1=O` [Compound 128, N-(3-(2-oxopiperazin-1-yl)propanoyloxy)-2-(4-(4-phenylbutyl)phenyl) acetamide hydrochloride], for which the “pH at 1.00 mg/mL of MGCD290 in saline” value is on record as 4.5-5. Under setting [1], the solubility at 1 h was greater than 1000 µg/mL.

For `COCCOCCOCC(=O)N1CC(CCCC(=O)ONC(=O)Cc2ccc(CCCCc3ccccc3)cc2)C1` [Compound 128B], the “pH at 1.00 mg/mL of MGCD290 in saline” value is 5.5-6. For the same compound, the solubility at 1 h under setting [2] is less than 500 µg/mL. Besides, the solubility at 1 h under setting [1] is less than 1000 µg/mL.

Turning to `NCCNCC(=O)NCCCC(=O)ONC(=O)Cc1ccc(CCCCc2ccccc2)cc1` [Compound 133, 2-(2-Aminoethylamino)-N-(4-oxo-4-(2-(4-(4-phenylbutyl)phenyl)acetamidooxy)butyl) acetamide dihydrochloride], the “pH at 1.00 mg/mL of MGCD290 in saline” value is 4.5-5. Further, the solubility at 1 h under setting [2] is less than 500 µg/mL. In addition, the solubility at 1 h under setting [1] is less than 1000 µg/mL.
